For the assay, the system named is HCV genotype 1b replicon in Huh 7 cells. Description: HCV replicon assay (luciferase readout, 1b_Huh-Luc/Neo-ET cell line). The assay is classed as cell-based. Particulars: Hepatitis C virus, Huh-7, 72 h. The procedure, abridged:
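Inhibition expressed as percent of untreated control luciferase signal and fitted to a Hill-slope equation for EC50, with repeat determinations. Compounds were added in triplicate to Huh 7 cells stably expressing the genotype 1b luciferase replicon, with 72 h exposure.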
In general terms: In antiviral work, replicon cells carry a viral genome segment that copies itself.

The mark [1] stands for this setting: read-out: Inhibition of HCV genotype 1b, Table 5, 72 h incubation.
Where [2] appears, read: read-out: Inhibition of HCV genotype 1b, Table 4, 72 h incubation.
Where [3] appears, read: read-out: Inhibition of HCV genotype 1b, Table 3, 72 h incubation.
The mark [4] stands for this setting: read-out: Inhibition of HCV genotype 1b, Table 1, 72 h incubation.

Read-outs that look alike come from different tables or passages of the source. Bounds are passed on as bounds.

In the case of `COC(=O)N[C@H](C(=O)N1CCC[C@H]1c1ncc(C23CCC(c4ccc(-c5cnc([C@@H]6CCCN6C(=O)[C@@H](NC(=O)N6CC[C@H](O)C6)C(C)C)[nH]5)cc4)(CC2)CC3)[nH]1)C(C)C` [compound 651], the EC50 under setting [1] is 1 to 9.9 nM.

For the compound `COC(=O)N[C@@H](C(=O)N1CCC[C@H]1c1ncc(-c2ccc(C34CCC(c5cnc([C@@H]6CCCN6C(=O)[C@@H](c6ccccc6)N(C)C)[nH]5)(CC3)CC4)cc2)[nH]1)c1ccccc1` [compound 618], the EC50 under setting [1] is below 1 nM.

Consider `CC(C)[C@H](NC(=O)OC(C)(C)C)C(=O)N1CCC[C@H]1c1nc2ccc(-c3ccc(-c4ccc5nc([C@@H]6CCCN6C(=O)[C@@H](NC(=O)OC(C)(C)C)C(C)C)[nH]c5c4)cc3)cc2[nH]1` [compound 554], for which the EC50 under setting [2] was above 1000 nM.

Regarding `COC(=O)N[C@@H](C(=O)N[C@@H](C)c1ncc(-c2cc(F)c(N3CCC(c4cnc([C@@H]5CCCN5C(=O)[C@H](NC(=O)OC)c5ccccc5)[nH]4)CC3)c(F)c2)[nH]1)c1ccccc1` [compound 518], under setting [3], the EC50 was below 1 nM.

With `COC(=O)N[C@@H](C(=O)N1CCC[C@H]1c1ncc(-c2cc(F)c(N3CCC(c4cnc([C@@H]5CCCN5C(=O)[C@@H](c5ccccc5)N5CCOCC5)[nH]4)CC3)c(F)c2)[nH]1)c1ccccc1` [compound 468], the EC50 under setting [3] is below 1 nM.

In the case of `CC[C@H](C)[C@H](NC(=O)OC)C(=O)N1CCC[C@H]1c1ncc(-c2ccc(C34CCC(c5cnc([C@@H]6CCCN6C(=O)[C@@H](NC(=O)OC)C(C)C)[nH]5)(CC3)CC4)cc2)[nH]1` [compound 2073], the EC50 under setting [1] is below 1 nM.

Regarding `O=C(N[C@@H](C(=O)N1CCC[C@H]1c1ncc(-c2ccc(N3CCC(c4cnc([C@@H]5CCCN5C(=O)[C@H](NC(=O)C5CC5)c5ccccc5)[nH]4)CC3)c(F)c2)[nH]1)c1ccccc1)C1CC1` [compound 451], the EC50 under setting [3] was below 1 nM.

Regarding `COC(=O)N[C@@H](C(=O)N1CCC[C@H]1c1nc(-c2ccc(/C=C/c3ccc(-c4cnc([C@@H]5CCCN5C(=O)[C@H](NC(=O)OC)c5ccccc5)[nH]4)cc3)cc2)c[nH]1)c1ccccc1` [Compound 2120], where the note is “read-out: Inhibition of HCV genotype 1b, Table 9, 72 h incubation”, the EC50 was below 1 nM.

Regarding `O=C(NC1CCC(c2ccc(-c3cnc([C@@H]4COCCN4C(=O)C(NC(=O)N4CCOCC4)c4ccccc4)[nH]3)cc2)CC1)[C@@H]1CCCN1C(=O)C(NC(=O)N1CCOCC1)c1ccccc1` (stereo partly shown) [compound 372], the EC50 under setting [4] lay in the range of 1 to 9.9 nM.

On to `COC(=O)N[C@@H](C(=O)N1CCC[C@H]1c1nc2ccc(-c3ccc(-c4ccc5nc([C@@H]6CCCN6C(=O)[C@H](NC(=O)OC)c6ccccc6)[nH]c5c4)cc3)cc2[nH]1)c1ccccc1` [compound 550], for which, under setting [2], the EC50 is below 1 nM.

With `COC(=O)N[C@H](C(=O)N1CCC[C@H]1c1ncc(-c2ccc([C@H]3CC[C@H](c4cnc([C@@H]5CCCN5C(=O)[C@H](C(C)C)N(C)C)[nH]4)CC3)cc2)[nH]1)C(C)C` [compound 941], under setting [4], the EC50 is below 1 nM.

In the case of `CC(C)[C@@H](NC(=O)N1CCOCC1)C(=O)N1CCC[C@H]1C(=O)N[C@H]1CC[C@H](c2ccc(-c3cnc([C@@H]4CCCN4C(=O)[C@H](NC(=O)N4CCOCC4)C(C)C)[nH]3)cc2)CC1` [compound 360], under setting [4], the EC50 lay in the range of 10 to 999 nM.

For the compound `COC(=O)N[C@H](C(=O)N1CCC[C@H]1c1ncc(-c2ccc(C34CCC(c5cnc([C@@H]6CCCN6C(=O)[C@@H](c6ccccc6)N6CCCCC6)[nH]5)(CC3)CC4)cc2)[nH]1)C(C)C` [compound 632], the EC50 under setting [1] is below 1 nM.

For `COC(=O)N[C@H](C(=O)N1CCC[C@H]1c1ncc(-c2ccc(C34CCC(c5cnc([C@@H]6CCCN6C(=O)[C@@H](NC(=O)OC)C6CC6)[nH]5)(CC3)CC4)cc2)[nH]1)C1CC1` [compound 908], the EC50 under setting [1] was below 1 nM.

In the case of `CC(C)[C@H](NC(=O)N1CCOCC1)C(=O)N1CCC[C@H]1c1ncc(-c2ccc(C34CCC(c5cnc([C@@H]6CCCN6C(=O)[C@@H](NC(=O)N6CCOCC6)C(C)C)[nH]5)(CC3)CC4)cc2)[nH]1` [compound 628], the EC50 under setting [1] was above 1000 nM.

Take `COC(=O)N[C@H](C(=O)N1CCC[C@H]1c1ncc(-c2ccc(C34CCC(c5cnc([C@@H]6CCCN6C(=O)[C@@H](NC(=O)OC)C(C)C)[nH]5)(CC3)CC4)cc2)[nH]1)C(C)C` [compound 627]: the EC50 under setting [1] is below 1 nM.

Take `COC(=O)N[C@@H](C(=O)N1CCC[C@H]1c1ncc(-c2cc(F)c(N3CCC(c4cnc([C@@H]5CCCN5C(=O)[C@@H](c5ccccc5)N(C)C)[nH]4)CC3)c(F)c2)[nH]1)c1ccccc1` [compound 458]: the EC50 under setting [3] was below 1 nM.

For `COC(=O)N[C@@H](C(=O)N1CCC[C@H]1CNC(=O)C12CCC(c3ccc(-c4cnc([C@@H]5CCCN5C(=O)[C@H](NC(=O)OC)c5ccccc5)[nH]4)cc3)(CC1)CC2)c1ccccc1` [compound 604], the EC50 under setting [1] was below 1 nM.

For the compound `COC(=O)N[C@H](C(=O)N1CCC[C@H]1c1ncc(-c2ccc([C@H]3CC[C@H](c4cnc([C@@H]5CCCN5C(=O)[C@@H](c5ccccc5)N5CCCCC5)[nH]4)CC3)cc2)[nH]1)C(C)C` [compound 947], under setting [4], the EC50 is below 1 nM.

As for `COC(=O)N[C@H](C(=O)N1CCC[C@H]1c1nc2ccc(-c3ccc(-c4ccc5nc([C@@H]6CCCN6C(=O)[C@@H](c6ccccc6)N(C)C)[nH]c5c4)cc3)cc2[nH]1)C(C)C` [compound 2038], the EC50 under setting [2] is below 1 nM.

`COC(=O)N[C@@H](C(=O)N1CCC[C@H]1c1ncc(-c2ccc(C34CCC(c5cnc([C@@H]6CCCN6C(=O)[C@H](NC(=O)OC)c6ccccc6)[nH]5)(CC3)CC4)cc2)[nH]1)c1ccccc1` [compound 606]: under setting [1], the EC50 was below 1 nM.

Consider `COC(=O)N[C@H](C(=O)N1CCC[C@H]1c1ncc(-c2ccc([C@H]3CC[C@H](c4cnc([C@@H]5CCCN5C(=O)[C@@H](NC(=O)OC5CCOCC5)C(C)C)[nH]4)CC3)cc2)[nH]1)C(C)C` [compound 945], for which, under setting [4], the EC50 was below 1 nM.

For `COC(=O)N[C@@H](C(=O)N1CCC[C@H]1c1ncc(-c2cc(F)c(N3CCC(c4cnc([C@@H]5COCCN5C(=O)[C@H](NC(=O)OC(C)(C)C)c5ccccc5)[nH]4)CC3)c(F)c2)[nH]1)c1ccccc1` [compound 489], the EC50 under setting [3] was below 1 nM.

For the compound `COC(=O)N[C@H](C(=O)N1CCC[C@H]1c1ncc(-c2ccc(C34CCC(c5cnc([C@@H]6CCCN6C(=O)[C@@H](NC(=O)C6CCOCC6)C(C)C)[nH]5)(CC3)CC4)cc2)[nH]1)C(C)C` [compound 641], the EC50 under setting [1] was above 1000 nM.

`CC(C)[C@H](NC(=O)N1CCC(O)CC1)C(=O)N1CCC[C@H]1c1ncc(-c2ccc(C34CCC(c5cnc([C@@H]6CCCN6C(=O)[C@@H](NC(=O)N6CCC(O)CC6)C(C)C)[nH]5)(CC3)CC4)cc2)[nH]1` [compound 630]: under setting [1], the EC50 was above 1000 nM.

Consider `COC(=O)N[C@H](C(=O)N1CCC[C@H]1c1ncc(-c2ccc(C34CCC(c5cnc([C@@H]6CCCN6C(=O)[C@H](NC(=O)OC6CCOCC6)c6ccccc6)[nH]5)(CC3)CC4)cc2)[nH]1)C(C)C` [compound 2108], for which the EC50 under setting [1] was below 1 nM.

Take `CC(C)(C)OC(=O)N[C@@H](C(=O)N1CCC[C@H]1c1ncc(-c2cc(F)c(N3CCC(c4cnc([C@@H]5CCCN5C(=O)[C@H](NC(=O)OC(C)(C)C)c5ccccc5)[nH]4)CC3)c(F)c2)[nH]1)c1ccccc1` [compound 482]: the EC50 under setting [3] was below 1 nM.

On to `COC(=O)N[C@@H](C(=O)N1CCC[C@H]1c1ncc(C2CCN(c3c(F)cc(-c4cnc([C@@H]5CCCN5C(=O)[C@H](NC(=O)OC(C)(C)C)c5ccccc5)[nH]4)cc3F)CC2)[nH]1)c1ccccc1` [compound 479], for which the EC50 under setting [3] was below 1 nM.

As for `CC(C)(C)OC(=O)N[C@@H](C(=O)N1CCOC[C@H]1c1ncc(-c2cc(F)c(N3CCC(c4cnc([C@@H]5CCCN5C(=O)[C@H](NC(=O)OC(C)(C)C)c5ccccc5)[nH]4)CC3)c(F)c2)[nH]1)c1ccccc1` [compound 508], under setting [3], the EC50 is below 1 nM.

In the case of `COC(=O)N[C@H](C(=O)N1CCC[C@H]1c1ncc(C23CCC(c4ccc(-c5cnc([C@@H]6CCCN6C(=O)[C@@H](NC6CCOCC6)C(C)C)[nH]5)cc4)(CC2)CC3)[nH]1)C(C)C` [compound 914], under setting [1], the EC50 is 10 to 999 nM.

For `COC(=O)N[C@@H](C(=O)N1CCC[C@H]1c1ncc(-c2ccc(C34CCC(c5cnc([C@@H]6CCCN6C(=O)[C@@H](c6ccccc6)N6CCOCC6)[nH]5)(CC3)CC4)cc2)[nH]1)c1ccccc1` [compound 611], the EC50 under setting [1] is below 1 nM.

`COC(=O)N[C@H](C(=O)N1CCC[C@H]1c1nc2ccc(-c3ccc(-c4ccc5nc([C@@H]6CCCN6C(=O)[C@@H](NC(=O)OC)C(C)C)[nH]c5c4)cc3)cc2[nH]1)C(C)C` [compound 551]: the EC50 under setting [2] was below 1 nM.

On to `COC(=O)N[C@H](C(=O)N1CCC[C@H]1c1ncc(-c2ccc([C@H]3CC[C@H](c4cnc([C@@H]5CCCN5C(=O)[C@H](NC(=O)NC5CCOCC5)C(C)C)[nH]4)CC3)cc2)[nH]1)C(C)C` [compound 944], for which the EC50 under setting [4] is below 1 nM.

Take `COC(=O)N[C@@H](CC(C)C)C(=O)N1CCC[C@H]1c1ncc(-c2ccc(C34CCC(c5cnc([C@@H]6CCCN6C(=O)[C@@H](NC(=O)OC)C(C)C)[nH]5)(CC3)CC4)cc2)[nH]1` [compound 2072]: under setting [1], the EC50 is below 1 nM.

For the compound `O=C(N[C@@H](C(=O)N1CCC[C@H]1CNC(=O)C12CCC(c3ccc(-c4cnc([C@@H]5CCCN5C(=O)[C@H](NC(=O)N5CCOCC5)c5ccccc5)[nH]4)cc3)(CC1)CC2)c1ccccc1)N1CCOCC1` [compound 603], the EC50 under setting [1] is 1 to 9.9 nM.

On to `CC(C)[C@H](NC(=O)N1CCC(=O)CC1)C(=O)N1CCC[C@H]1c1ncc(-c2ccc(C34CCC(c5cnc([C@@H]6CCCN6C(=O)[C@@H](NC(=O)N6CCC(=O)CC6)C(C)C)[nH]5)(CC3)CC4)cc2)[nH]1` [compound 638], for which, under setting [1], the EC50 is above 1000 nM.

On to `COC(=O)N[C@@H](C(=O)N1CCC[C@H]1c1ncc(C23CCC(c4ccc(-c5cnc([C@@H]6CCCN6C(=O)[C@H](NC(=O)OC)C(C)C)[nH]5)cc4)(CC2)CC3)[nH]1)c1ccccc1` [compound 621], for which the EC50 under setting [1] was below 1 nM.

Source of the values: patent US9120779B2, “Inhibitors of HCV NS5A” (PRESIDIO PHARMACEUTICALS, INC., priority 2008, dated 2015).
